Common to all, as to type: functional, cell-based
The test system of assay [1] is HepG2. As to the kind of experiment: Hepatoprotective activity against APAP-induced toxicity in human HepG2 cells assessed as cell survival rate at 10 uM incubated for 48 hrs by MTT assay.
In a further assay the test system is A549. As to the kind of experiment: Cytotoxicity against human A549 cells assessed as reduction in cell viability incubated for 24 hrs by MTT assay. Particulars: A549, 24 h. (Tetrazolium assays rely on reduction of a dye to a coloured formazan, in cell work by metabolically active cells.)
In assay [2] the test system is HepG2. Briefly: Cytotoxicity against human HepG2 cells assessed as reduction in cell viability incubated for 24 hrs by MTT assay. Particulars: HepG2, 24 h.

SMILES strings stand for the structures. The source made the active and inactive calls. The rule behind the calls is not given here.

`COC(=O)[C@]12C(=O)[C@@H](C)O[C@@H]3OC(=O)[C@](C)(C[C@H]4[C@]5(CO5)C5=CC(=O)OC(C)(C)[C@]56O[C@@H]6C[C@@]41C)[C@@H]32`: the outcome in the assay on HepG2 [1] was Active.

For the compound `COC(=O)[C@]12C(=O)[C@@H](C)O[C@@H]3OC(=O)[C@](C)(C[C@@H]4[C@]1(C)CC=C1C(=CC(=O)OC1(C)C)[C@@]4(C)O)[C@@H]32`, the result in the assay with HepG2 [1] was Active.

As to `C[C@H]1O[C@@H]2OC(=O)[C@]3(C)C[C@@H]4[C@](C)(C(=O)C=C5C(=CC(=O)OC5(C)C)[C@@]45CO5)[C@H](C1=O)[C@]23O`, the results for the IC50 with A549 and in the assay with HepG2 [2] were 6.8 µM and 5.58 µM, respectively.

Turning to `COC(=O)[C@]12C(=O)[C@@H](C)O[C@@H]3OC(=O)[C@](C)(C[C@H]4[C@]5(CO5)C5=CC(=O)OC(C)(C)C5=CC[C@@]41C)[C@@H]32`, the result in the assay on HepG2 [1] was Active.

Take `C[C@H]1O[C@@H]2OC(=O)[C@]3(C)C[C@@H]4[C@](C)(C(=O)C=C5C(=CC(=O)OC5(C)C)[C@@]45CO5)[C@H](C1=O)[C@H]23`: the result in the assay with HepG2 [1] was Active.

On to `C[C@H]1O[C@@H]2OC(=O)[C@]3(C)C[C@@H]4[C@@]5(C)C(=C1O[C@H]5C=C1C(=CC(=O)OC1(C)C)[C@@]41CO1)[C@]23O`, for which the outcome with HepG2 [1] was Active.

(Values after ChEMBL document CHEMBL5154680, “Seco and Nor-seco Isodhilarane-Type Meroterpenoids from Penicillium purpurogenum and the Configuration Revisions of Related Compounds” (J Nat Prod, 2022).)
